{"source": "ChEMBL document CHEMBL1156345", "about": "“Suillusin, a unique benzofuran from the mushroom Suillus granulatus” (J Nat Prod, 2001)", "key": {"[1]": {"test_system": "Radical scavenging activity", "assay": "Antioxidant activity assessed as DPPH radical scavenging activity at 100 ug/mL", "format": "functional"}, "A549": {"test_system": "A549", "assay": "Cytotoxicity against human A549 cells at 30 ug/mL after 48 hrs by SRB assay", "format": "functional, cell-based"}, "SK-OV-3": {"test_system": "SK-OV-3", "assay": "Cytotoxicity against human SKOV3 cells at 30 ug/mL after 48 hrs by SRB assay", "format": "functional, cell-based"}, "SW-620": {"test_system": "SW-620", "assay": "Cytotoxicity against human SW620 cells after 48 hrs by SRB assay", "format": "functional, cell-based", "details": "SW-620, 48 h"}, "HCT-15": {"test_system": "HCT-15", "assay": "Cytotoxicity against human HCT15 cells at 30 ug/mL after 48 hrs by SRB assay", "format": "functional, cell-based"}, "PC-3": {"test_system": "PC-3", "assay": "Cytotoxicity against human PC3 cells at 30 ug/mL after 48 hrs by SRB assay", "format": "functional, cell-based"}, "UACC-62": {"test_system": "UACC-62", "assay": "Cytotoxicity against human UACC62 cells after 48 hrs by SRB assay", "format": "functional, cell-based", "details": "UACC-62, 48 h"}}, "note": "Active and inactive are the calls of the source. The calls are words filed in the database; no cut-off is given here.", "data": [{"molecule": "VITAMIN E", "values": [{"measurement": "Activity", "setting": "[1]", "value": 73, "unit": "%"}]}, {"molecule": "COC(=O)[C@@]12Oc3ccc(O)cc3[C@@H]1C(=O)C(O)=C2c1ccc(O)c(O)c1", "note": "[SUILLUSIN]", "values": [{"measurement": "Activity", "setting": "[1]", "value": 30, "unit": "%"}, {"measurement": "Activity", "setting": "A549", "value": "Active"}, {"measurement": "Activity", "setting": "SK-OV-3", "value": "Active"}, {"measurement": "IC50", "setting": "SW-620", "value": 20, "unit": "µg/mL"}, {"measurement": "Activity", "setting": "HCT-15", "value": "Active"}, {"measurement": "Activity", "setting": "PC-3", "value": "Active"}, {"measurement": "IC50", "setting": "UACC-62", "value": 12, "unit": "µg/mL"}]}]}
